Reference: ChEMBL document CHEMBL6115002, “Discovery of novel sitolactone derivative leading to PANoptosis and differentiation of acute myeloid leukemia cells” (Eur J Med Chem, 2025)
Activity calls are given as the source filed them. The rule behind the calls is not given here.

Key:
[1] = Permeability of compound in human Caco-2 cells; assay type: ADME, cell-based
HCT-116 = test: Anti-cancer activity against human HCT-116 cells assessed as reduction in number of spheroids incubated for 24 hrs; assay type: functional, cell-based
HL-60 = test: Antiproliferative activity against human HL-60 cells assessed as inhibition of cell proliferation incubated for 72 hrs by CCK-8 assay; assay type: functional, cell-based; conditions: HL-60, 72 h
[2] = Antiproliferative activity against human SKNO-1 cells assessed as inhibition of cell proliferation incubated for 72 hrs by CCK-8 assay; assay type: functional, cell-based; conditions: SKNO-1, 72 h
MOLM-13 = test: Antiproliferative activity against human MOLM-13 cells assessed as inhibition of cell proliferation incubated for 72 hrs by CCK-8 assay; assay type: functional, cell-based; conditions: MOLM-13, 72 h
Z-138 = test: Antiproliferative activity against human Z138 cells assessed as inhibition of cell proliferation incubated for 72 hrs by CCK-8 assay; assay type: functional, cell-based; conditions: Z-138, 72 h
NCI-H460 = test: Antiproliferative activity against human NCI-H460 cells assessed as inhibition of cell proliferation incubated for 72 hrs by CCK-8 assay; assay type: functional, cell-based; conditions: NCI-H460, 72 h
NCI-H23 = test: Antiproliferative activity against human NCI-H23 cells assessed as inhibition of cell proliferation incubated for 72 hrs by CCK-8 assay; assay type: functional, cell-based; conditions: NCI-H23, 72 h
Calu-1 = test: Antiproliferative activity against human Calu-1 cells assessed as inhibition of cell proliferation incubated for 72 hrs by CCK-8 assay; assay type: functional, cell-based; conditions: Calu-1, 72 h
A549 = test: Antiproliferative activity against human A549 cells assessed as inhibition of cell proliferation incubated for 72 hrs by CCK-8 assay; assay type: functional, cell-based; conditions: A549, 72 h
RKO = test: Antiproliferative activity against human RKO cells assessed as inhibition of cell proliferation incubated for 72 hrs by CCK-8 assay; assay type: functional, cell-based
HT-29 = test: Antiproliferative activity against human HT-29 cells assessed as inhibition of cell proliferation incubated for 72 hrs by CCK-8 assay; assay type: functional, cell-based; conditions: HT-29, 72 h
MIA PaCa-2 = test: Antiproliferative activity against human MIA PaCa-2 cells assessed as inhibition of cell proliferation incubated for 72 hrs by CCK-8 assay; assay type: functional, cell-based; conditions: MIA PaCa-2, 72 h
[3] = Induction of cell cycle arrest in mouse WEHI-3 cells assessed as increase in accumulation of cells at G1 phase at 0.25 uM incubated for 24 hrs by propidium iodide staining based flow cytometric analysis (reference value: 46.93%); assay type: functional
[4] = Induction of cell cycle arrest in mouse WEHI-3 cells assessed as increase in accumulation of cells at G2 phase at 1 uM incubated for 24 hrs by propidium iodide staining based flow cytometric analysis (reference value: 1.85%); assay type: functional
[5] = Induction of cell cycle arrest in mouse WEHI-3 cells assessed as increase in accumulation of cells at S phase at 1 uM incubated for 24 hrs by propidium iodide staining based flow cytometric analysis (reference value: 51.22%); assay type: functional
Kasumi 1 [6] = test: Induction of cell cycle arrest in human Kasumi 1 cells assessed as increase in accumulation of cells at G1 phase at 0.25 uM incubated for 24 hrs by propidium iodide staining based flow cytometric analysis (reference value: 50.41%); assay type: functional
Kasumi 1 [7] = test: Induction of cell cycle arrest in human Kasumi 1 cells assessed as increase in accumulation of cells at G1 phase at 1 uM incubated for 24 hrs by propidium iodide staining based flow cytometric analysis (reference value: 50.41%); assay type: functional
Kasumi 1 [8] = test: Induction of cell cycle arrest in human Kasumi 1 cells assessed as increase in accumulation of cells at G2 phase at 0.5 uM incubated for 24 hrs by propidium iodide staining based flow cytometric analysis (reference value: 9.82%); assay type: functional
Kasumi 1 [9] = test: Induction of cell cycle arrest in human Kasumi 1 cells assessed as increase in accumulation of cells at S phase at 0.25 uM incubated for 24 hrs by propidium iodide staining based flow cytometric analysis (reference value: 39.77%); assay type: functional
Kasumi 1 [10] = test: Induction of cell cycle arrest in human Kasumi 1 cells assessed as increase in accumulation of cells at S phase at 0.5 uM incubated for 24 hrs by propidium iodide staining based flow cytometric analysis (reference value: 39.77%); assay type: functional
WEHI-3 [11] = test: Induction of cell cycle arrest in mouse WEHI-3 cells assessed as increase in P21 level at 0.15 to 1.2 uM incubated for 24 hrs by Western blotting analysis; assay type: functional, cell-based; conditions: dose 0.15-1.2 µM
Kasumi 1 [12] = test: Induction of cell cycle arrest in human Kasumi 1 cells assessed as increase in P21 level at 0.15 to 1.2 uM incubated for 24 hrs by Western blotting analysis; assay type: functional, cell-based; conditions: dose 0.15-1.2 µM
WEHI-3 [13] = test: Induction of cell cycle arrest in mouse WEHI-3 cells assessed as increase in P53 level at 0.15 to 1.2 uM incubated for 24 hrs by Western blotting analysis; assay type: functional, cell-based; conditions: dose 0.15-1.2 µM
WEHI-3 [14] = test: Induction of cell differentiation in mouse WEHI-3 cells assessed as increase in CD11B expression by Western blotting analysis; assay type: functional, cell-based; conditions: dose 0.125-1 µM
WEHI-3 [15] = test: PANoptosis in mouse WEHI-3 cells assessed as cell death at 1.2 uM incubated for 72 hrs by optical microscopic analysis; assay type: functional, cell-based
Kasumi 1 [16] = test: PANoptosis in human Kasumi 1 cells assessed as cell death at 0.6 uM incubated for 72 hrs by optical microscopic analysis; assay type: functional, cell-based
WEHI-3 [17] = test: Induction of apoptosis in mouse WEHI-3 cells assessed as increase in cleaved PARP-1 level incubated for 72 hrs by Western blotting analysis; assay type: functional, cell-based; conditions: dose 0.625-5 µM
WEHI-3 [18] = test: Induction of apoptosis in mouse WEHI-3 cells assessed as increase in caspase-3 level incubated for 72 hrs by Western blotting analysis; assay type: functional, cell-based; conditions: dose 0.625-5 µM
Kasumi 1 [19] = test: Induction of […] in human Kasumi 1 cells assessed as increase in p-RIPK3 level at 0.625 to 5 uM incubated for 72 hrs by Western blotting analysis; assay type: functional, cell-based; conditions: dose 0.625-5 µM
Kasumi 1 [20] = test: Induction of […] in human Kasumi 1 cells assessed as increase in p-MLKL level at 0.625 to 5 uM incubated for 72 hrs by Western blotting analysis; assay type: functional, cell-based; conditions: dose 0.625-5 µM
Kasumi 1 [21] = test: Disruption of pyruvate metabolic pathway in human Kasumi 1 cells by KEGG enrichment analysis; assay type: functional, cell-based
Kasumi 1 [22] = test: Disruption of citrate metabolic pathway in human Kasumi 1 cells by KEGG enrichment analysis; assay type: functional, cell-based
WEHI-3 [23] = test: Antitumor activity against mouse WEHI-3 cells implanted in Balb/c mouse assessed as reduction in liver metastasis at 1 mg/kg, po administered daily for 15 days by H and E staining based analysis; assay type: functional, organism-based; conditions: time 15.0 day
[24] = Toxicity in Balb/c mouse implanted with mouse WEHI-3 cells assessed as change in body weight at 100 to 200 mg/kg, po administered (4aR,6aS,7S,9aS,9bS)-2-(((S)-2-(hydroxymethyl)pyrrolidin-1-yl)methyl)-6a-methyl7 ((triisopropylsilyl)oxy)decahydrocyclopenta[f]chromen-3(2H)-one as prodrug once daily and measured after 15 days; assay type: organism-based; conditions: in vivo, 360 h, dose 100-200 mg/kg, time 15 day
WEHI-3 [25] = test: Antitumor activity against mouse WEHI-3 cells implanted in Balb/c mouse assessed as reduction in leukocyte number at 100 to 200 mg/kg, po administered (4aR,6aS,7S,9aS,9bS)-2-(((S)-2-(hydroxymethyl)pyrrolidin-1-yl)methyl)-6a-methyl7 ((triisopropylsilyl)oxy)decahydrocyclopenta[f]chromen-3(2H)-one as prodrug once daily and measured after 15 days by H and E staining based analysis; assay type: functional, organism-based; conditions: dose 100-200 mg/kg, time 15.0 day

C=C1C[C@@H]2[C@@H](CC[C@]3(C)[C@@H](O[Si](C(C)C)(C(C)C)C(C)C)CC[C@@H]23)OC1=O
permeability [1]: Permeable | Activity (HCT-116): Active | IC50 (HL-60): 900 nM | IC50 [2]: 1240 nM | IC50 (MOLM-13): 1530 nM | IC50 (Z-138): 1880 nM | IC50 (NCI-H460): 2820 nM | IC50 (NCI-H23): 4000 nM | IC50 (Calu-1): 3600 nM | IC50 (A549): 5240 nM | IC50 (RKO): 2070 nM | IC50 (HT-29): 1740 nM | IC50 (MIA PaCa-2): 1710 nM | Activity [3]: 51.78% | Activity [4]: 3.39% | Activity [5]: 32.07% | Activity (Kasumi 1 [6]): 52.67% | Activity (Kasumi 1 [7]): 58.52% | Activity (Kasumi 1 [8]): 14.84% | Activity (Kasumi 1 [9]): 36.36% | Activity (Kasumi 1 [10]): 31.64% | Activity (WEHI-3 [11]): Active | Activity (Kasumi 1 [12]): Active | Activity (WEHI-3 [13]): Active | Activity (WEHI-3 [14]): Dose-dependent-effect | Activity (WEHI-3 [15]): Active | Activity (Kasumi 1 [16]): Active | Activity (WEHI-3 [17]): Dose-dependent-effect | Activity (WEHI-3 [18]): Dose-dependent-effect | Activity (Kasumi 1 [19]): Active | Activity (Kasumi 1 [20]): Active | Activity (Kasumi 1 [21]): Active | Activity (Kasumi 1 [22]): Active | Activity (WEHI-3 [23]): Active | Activity [24]: Non-toxic | Activity (WEHI-3 [25]): Active
